Experimental data from article PMC4869729 (Chemical Science, 2015).

Experiments:
thioredoxin reductase = assay: Thioredoxin reductase activity in treated Caki-1 cells; format: cell-based, human
[1] = system: TrxR in human breast MCF-7 cancer cells; conditions: MCF-7 cells, 4 μM; cited from earlier work
[2] = system: TrxR in human ovarian A2780 cancer cells; conditions: 10 μM; cited from earlier work
MAPKAPK-3 = assay: Immunoblotting of MAPKAPK-3 in Auranofin treated Caki-1 cells; format: cell-based, human; conditions: Caki-1, Western blot (Fig. S46)
[3] = system: non-tumorigenic human embryonic kidney cell lines HEK-293T; assay: XTT cytotoxicity assay, HEK-293T; format: cell-based; conditions: read-out: IC50 HEK-293T, 72 h incubation
[4] = system: human renal Caki-1 cancer cell lines; assay: XTT cytotoxicity assay, Caki-1; format: cell-based; conditions: read-out: IC50 Caki-1, 72 h incubation
plasmid (pBR322) DNA = assay: Electrophoresis mobility shift assay; format: binding; conditions: pBR322, metal/DNAbp ratios 0.25-2.0, 37 °C, 20 h
[5] = system: human renal proximal tubular cells (RPTC); assay: XTT cytotoxicity assay, RPTC; format: cell-based; conditions: read-out: IC50 RPTC, 72 h incubation

IC50 (thioredoxin reductase; read-out: IC50 thioredoxin reductase, after 12 hours) [µM]	Molecule	inhibition of thioredoxin reductase activity (thioredoxin reductase; 5 μM, 5 hour incubation) [%]	inhibition of total TrxR activity [1] [%]	inhibition of total TrxR activity [2] [%]	expression of MAPKAPK-3 (MAPKAPK-3)	IC50 [3] [µM]	IC50 [4] [µM]	effect on electrophoretic mobility of plasmid forms (plasmid (pBR322) DNA)	IC50 [5] [µM]
0.61	CC(=O)OC[C@H]1O[C@@H]([S-])[C@H](OC(C)=O)[C@@H](OC(C)=O)[C@@H]1OC(C)=O.CCP(CC)CC.[Au+] [Auranofin]	74.1	18	30	failed to down-regulate MAKPAPK-3				
	N.N.[Cl][Pt][Cl] [Cisplatin]					3.27 ± 0.13	29 ± 4.11	decreased mobility of the CCC form and increased mobility of the OC form	
	COc1ccc(C[C]2([Ti+2][C]3(Cc4ccc(OC)cc4)C=CC=C3)C=CC=C2)cc1.[Cl-].[Cl-] [Titanocene Y]						29.4 ± 4.18		
	[Au(Hmba)(PPh3)] [compound 4]					1.11 ± 0.65	2.76 ± 0.35	did not affect the mobility of the faster-running supercoiled form	3.87 ± 0.15
